From US20210255193A1, “LYSINE REACTIVE PROBES AND USES THEREOF” (The Scripps Research Institute, priority 2017, published 2021)

Legend:
Test in all cases: competitive isoTOP-ABPP
Format in all cases: binding
[1] = biological target: T1, ACBD3 Golgi resident protein GCP60 (Homo sapiens, UniProt Q9H3P7); parameters: key to isoTOP-ABPP reactivity ratio at lysine Q9H3P7_K117: R = MS1 peak area ratio, DMSO (heavy) / compound-treated (light); settings: for R value (DMSO/fragment) for probe 1 labeling: Q9H3P7_K117; for R value (DMSO/fragment) for probe 1 labeling / isoTOP-ABPP reactivity ratio at lysine Q9H3P7_K117 / isoTOP-ABPP ratio (R) at liganded lysine Q9H3P7_K117: 50 uM, in vitro; for R value (DMSO/fragment) for probe 1 labeling / isoTOP-ABPP reactivity ratio at lysine Q9H3P7_K117: 231 sol; for isoTOP-ABPP ratio (R) at liganded lysine Q9H3P7_K117: sol, 231
T1 construct: isoTOP-ABPP experiments performed in cell lysates (in vitro); endogenous in cells; host or cells: soluble proteome of human cancer cell lines (MDA-MB-231; Ramos and Jurkat also prepared)
T1 sequence (Q9H3P7 1-528): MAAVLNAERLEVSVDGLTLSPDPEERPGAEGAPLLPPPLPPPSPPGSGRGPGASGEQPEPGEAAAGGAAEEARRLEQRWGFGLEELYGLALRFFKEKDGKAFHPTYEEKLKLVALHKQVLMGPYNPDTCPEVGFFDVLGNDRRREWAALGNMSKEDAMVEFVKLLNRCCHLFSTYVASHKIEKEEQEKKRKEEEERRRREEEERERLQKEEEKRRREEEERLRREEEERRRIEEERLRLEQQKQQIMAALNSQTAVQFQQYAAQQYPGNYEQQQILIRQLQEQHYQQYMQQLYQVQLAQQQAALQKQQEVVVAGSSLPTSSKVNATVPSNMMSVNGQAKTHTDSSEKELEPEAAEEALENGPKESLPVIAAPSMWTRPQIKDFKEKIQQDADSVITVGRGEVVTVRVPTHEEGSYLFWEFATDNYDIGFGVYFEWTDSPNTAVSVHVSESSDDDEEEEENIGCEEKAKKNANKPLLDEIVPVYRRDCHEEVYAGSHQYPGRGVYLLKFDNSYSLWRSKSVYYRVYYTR
Experimental: (§1) In vitro covalent fragment treatment for isoTOP-ABPP. All compounds were made up as solutions in DMSO (100×) and were used at a final concentration of 50 μM for activated esters and 100 μM for guanidinylating agents. For each profiling sample, 0.5 ml of lysate was treated with 5 μl of the 100× compound stock solution or 5 μl of DMSO. Samples were treated with activated esters for
(§2) STP-alkyne labeling and click chemistry. For concentration-dependent reactivity measurements by isoTOP-ABPP, 0.5 ml proteome aliquots were treated at ambient temperature with 1 mM STP-alkyne 1 (5 μl of 100 mM stock in DMSO) and 0.1 mM STP alkyne 1 (5 μl of 10 mM stock in DMSO), respectively. For competitive isoTOP-ABPP, after in vitro fragment treatment (detailed above), the samples were labeled for 1 h at ambient temperature with 0.1 mM STP-alkyne 1 (5 μl of 10 mM stock in DMSO). Samples were conjugated by copper-mediated azide-alkyne cycloaddition (CuAAC) to either the light (1 mM STP-alkyne or fragment treated) or heavy (0.1 mM STP-alkyne or DMSO treated) TEV tags (10 μl of 5 mM stocks in DMSO, final concentration=100 μM) using tris(2-carboxyethyl)phosphine hydrochloride
(§3) R value calculation and processing. The ratios of light and heavy MS1 peaks for each unique peptide were quantified with a CIMAGE software using default parameters (3 MS1 acquisitions per peak and signal to noise threshold set to 2.5). For reactivity measurements by isoTOP-ABPP, the R value was calculated from the ratio of MS1 peak areas, comparing the 1 mM STP alkyne sample (light TEV tag) with the 0.1 mM STP alkyne sample (heavy TEV tag). For competitive isoTOP-ABPP, the R value was calculated from the ratio of MS1 peak areas, comparing the DMSO treated sample (heavy TEV tag) with the compound treated sample (light TEV tag). […] Ratios for unique peptide entries are calculated for each experiment; overlapping peptides with the same modified lysine (for example, different charge states, MudPIT chromatographic steps or tryptic termini) are grouped together and the median ratio is reported as the final ratio (R). The peptide ratios reported by CIMAGE were further filtered to ensure the removal or correction of low-quality ratios in each individual data set. The quality filters applied were the following: removal of half tryptic peptides; for ratios with high standard deviations from the median (90% of the median or above) the lowest ratio was taken instead of the median; removal of peptides with R=20 and only a single MS2 event triggered during the elution of the parent ion; manual annotation of all the peptides with ratios of 20, removing any peptides with low quality elution profiles that remained after the previous curation steps (only done for competitive isoTOP-ABPP).
(§4) Cross-data processing for fragment screening. For compound treated samples, biological replicates of the same condition were averaged, if the standard deviation was below 60% of the mean; otherwise, for lysines with at least one R value <4 for a particular compound, the lowest value of the ratio set was taken. For lysines, where all R values for a particular compound were ≥4, the average was reported. For peptides containing several possible modified lysines, the lysine with the highest number of quantification events was used for analysis and the remaining, redundant peptides were reported as alternative modification sites. Peptides included in the aggregate dataset (those used for further bioinformatics and statistical analyses) were required to have been quantified in 2 experiments for competitive isoTOP-ABPP. Lysines were categorized as liganded, if they had at least one ratio R≥4 (hit fragments). For liganded lysines with R=20 for all liganding events, lysines were required to have been quantified with R=20 in two separate experiments and were further required to have been quantified with R<20 in one additional experiment.

PLIN3 Perilipin-3 = biological target: T2, PLIN3 Perilipin-3 (Homo sapiens, UniProt O60664); parameters: key to isoTOP-ABPP reactivity ratio at lysine O60664_K257 / isoTOP-ABPP reactivity ratio at lysine O60664_K140: R = MS1 peak area ratio, DMSO (heavy) / compound-treated (light); capped at 20
T2 construct: isoTOP-ABPP experiments performed in cell lysates (in vitro); endogenous in cells; host or cells: MDA-MB-231 soluble lysate
T2 sequence (O60664 1-434): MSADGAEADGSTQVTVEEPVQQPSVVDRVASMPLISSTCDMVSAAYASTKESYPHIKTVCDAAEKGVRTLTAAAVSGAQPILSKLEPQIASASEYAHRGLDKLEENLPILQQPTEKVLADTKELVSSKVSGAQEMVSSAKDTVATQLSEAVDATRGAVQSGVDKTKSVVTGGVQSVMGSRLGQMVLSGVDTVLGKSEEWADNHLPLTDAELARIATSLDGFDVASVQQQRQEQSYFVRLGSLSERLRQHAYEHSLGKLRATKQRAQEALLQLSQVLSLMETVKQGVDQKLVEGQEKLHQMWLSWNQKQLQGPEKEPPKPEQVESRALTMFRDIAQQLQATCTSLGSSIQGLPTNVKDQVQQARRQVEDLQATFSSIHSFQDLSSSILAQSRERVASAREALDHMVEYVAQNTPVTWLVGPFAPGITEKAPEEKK
Experimental: as §1, §2, §3, §4

[2] = biological target: T3, SRP54 Signal recognition particle 54 kDa protein (Homo sapiens, UniProt P61011); parameters: key to isoTOP-ABPP reactivity ratio at lysine P61011_K81: R = MS1 peak area ratio, DMSO (heavy) / compound-treated (light); capped at 20; settings: for R value (DMSO/fragment) for probe 1 labeling: P61011_K81; for R value (DMSO/fragment) for probe 1 labeling / isoTOP-ABPP reactivity ratio at lysine P61011_K81 / isoTOP-ABPP ratio (R) at liganded lysine P61011_K81: 50 uM, in vitro; for R value (DMSO/fragment) for probe 1 labeling / isoTOP-ABPP reactivity ratio at lysine P61011_K81: 231 sol; for isoTOP-ABPP ratio (R) at liganded lysine P61011_K81: sol, 231
T3 construct: isoTOP-ABPP experiments performed in cell lysates (in vitro); endogenous in cells; host or cells: soluble proteome of human cancer cell lines (MDA-MB-231, Ramos, Jurkat)
Experimental: as §1, §2, §3, §4

[3] = O60664_K257, 50 uM, 231 sol, in vitro

T3 sequence (P61011 whole entry, the tested form may be a part): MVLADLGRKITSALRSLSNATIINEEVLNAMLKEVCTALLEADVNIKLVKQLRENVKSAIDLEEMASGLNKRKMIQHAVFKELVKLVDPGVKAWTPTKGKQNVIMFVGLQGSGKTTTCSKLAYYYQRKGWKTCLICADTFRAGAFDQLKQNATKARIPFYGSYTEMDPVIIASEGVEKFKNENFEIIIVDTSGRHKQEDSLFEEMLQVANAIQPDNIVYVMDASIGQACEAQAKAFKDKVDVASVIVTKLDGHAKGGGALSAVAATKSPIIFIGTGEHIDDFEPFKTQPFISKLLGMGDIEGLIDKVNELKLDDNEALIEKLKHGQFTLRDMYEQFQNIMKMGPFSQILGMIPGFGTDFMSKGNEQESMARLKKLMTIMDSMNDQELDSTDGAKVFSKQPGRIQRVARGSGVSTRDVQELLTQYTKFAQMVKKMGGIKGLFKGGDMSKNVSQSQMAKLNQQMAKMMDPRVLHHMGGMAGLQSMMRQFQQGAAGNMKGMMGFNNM

Structure (SMILES): O=C(CCc1cn(-c2ccccc2)nc1-c1ccccc1)Oc1c(F)c(F)c(F)c(F)c1F [fragment 19, Pentafluorophenyl 3-(1,3-diphenyl-1H-pyrazol-4-yl)propanoate]
- R value (DMSO/fragment) for probe 1 labeling [1]: 1.0
- R value (DMSO/fragment) for probe 1 labeling (PLIN3 Perilipin-3; O60664_K140, 50 uM, 231 sol, in vitro): 1.5
- R value (DMSO/fragment) for probe 1 labeling (PLIN3 Perilipin-3; [3]): 2.2

Structure (SMILES): O=C(Oc1c(F)c(F)c(F)c(F)c1F)C(c1ccccc1)c1ccccc1 [fragment 20, Pentafluorophenyl 2,2-diphenylacetate]
- R value (DMSO/fragment) for probe 1 labeling [1]: 1.2
- R value (DMSO/fragment) for probe 1 labeling (PLIN3 Perilipin-3; [3]): 2.5
- R value (DMSO/fragment) for probe 1 labeling [2]: 1.0

Structure (SMILES): O=C(Oc1c(F)c(F)c(F)c(F)c1F)c1cc(C(F)(F)F)cc(C(F)(F)F)c1 [fragment 21, Pentafluorophenyl 3,5-bis(trifluoromethyl)benzoate]
- R value (DMSO/fragment) for probe 1 labeling [1]: 0.9
- R value (DMSO/fragment) for probe 1 labeling (PLIN3 Perilipin-3; [3]): 2.0
- R value (DMSO/fragment) for probe 1 labeling [2]: 0.7

Structure (SMILES): Cn1cc(CC(=O)Oc2c(F)c(F)c(F)c(F)c2F)c2ccccc21 [fragment 22, Pentafluorophenyl 2-(1-methyl-1H-indol-3-yl)acetate]
- R value (DMSO/fragment) for probe 1 labeling [1]: 1.2
- R value (DMSO/fragment) for probe 1 labeling (PLIN3 Perilipin-3; [3]): 2.6
- R value (DMSO/fragment) for probe 1 labeling [2]: 0.9

Structure (SMILES): COc1cc(CCC(=O)Oc2c(F)c(F)c(F)c(F)c2F)cc(OC)c1OC [fragment 23, Pentafluorophenyl 3-(3,4,5-trimethoxyphenyl)propanoate]
- R value (DMSO/fragment) for probe 1 labeling [1]: 1.2

Structure (SMILES): O=C(Oc1c(F)c(F)c(F)c(F)c1F)C1CCN(C(=O)OCc2ccccc2)CC1 [fragment 24, 1-Benzyl 4-(pentafluorophenyl) piperidine-1,4-dicarboxylate]
- isoTOP-ABPP reactivity ratio at lysine Q9H3P7_K117 [1]: 1.0
- isoTOP-ABPP reactivity ratio at lysine O60664_K140 (PLIN3 Perilipin-3; 50 uM, 231 sol, in vitro): 1.7

Structure (SMILES): O=C(Oc1c(F)c(F)c(F)c(F)c1F)c1ccc2ccccc2n1 [fragment 25, Pentafluorophenyl quinoline-2-carboxylate]
- isoTOP-ABPP reactivity ratio at lysine Q9H3P7_K117 [1]: 1.7
- isoTOP-ABPP reactivity ratio at lysine P61011_K81 [2]: 0.8

Structure (SMILES): O=C(CN1C(=O)c2ccccc2C1=O)Oc1c(F)c(F)c(F)c(F)c1F [fragment 27, Pentafluorophenyl 2-(1,3-dioxoisoindolin-2-yl)acetate]
- isoTOP-ABPP reactivity ratio at lysine Q9H3P7_K117 [1]: 1.9
- isoTOP-ABPP reactivity ratio at lysine O60664_K140 (PLIN3 Perilipin-3; 50 uM, 231 sol, in vitro): 1.9
- isoTOP-ABPP reactivity ratio at lysine O60664_K257 (PLIN3 Perilipin-3; 50 uM, 231 sol, in vitro): 1.8

Structure (SMILES): O=C(Oc1ccc([N+](=O)[O-])cc1[N+](=O)[O-])c1cc(C(F)(F)F)cc(C(F)(F)F)c1 [fragment 31, 2,4-Dinitrophenyl 3,5-bis(trifluoromethyl)benzoate]
- isoTOP-ABPP reactivity ratio at lysine Q9H3P7_K117 [1]: 1.1
- isoTOP-ABPP reactivity ratio at lysine P61011_K81 [2]: 0.9

Structure (SMILES): Cn1cc(CC(=O)Oc2ccc([N+](=O)[O-])cc2[N+](=O)[O-])c2ccccc21 [fragment 32, 2,4-Dinitrophenyl 2-(1-methyl-1H-indol-3-yl)acetate]
- isoTOP-ABPP reactivity ratio at lysine Q9H3P7_K117 [1]: 1.3
- isoTOP-ABPP reactivity ratio at lysine P61011_K81 [2]: 20.0

Structure (SMILES): O=C(Oc1ccc([N+](=O)[O-])cc1[N+](=O)[O-])C1CCN(C(=O)OCc2ccccc2)CC1 [fragment 34, 1-Benzyl 4-(2,4-dinitrophenyl) piperidine-1,4-dicarboxylate]
- isoTOP-ABPP ratio (R) at liganded lysine Q9H3P7_K117 [1]: 1.1
- isoTOP-ABPP ratio (R) at liganded lysine P61011_K81 [2]: 0.8

Structure (SMILES): O=C(CC12CC3CC(CC(C3)C1)C2)Oc1ccc([N+](=O)[O-])cc1[N+](=O)[O-] [fragment 38, 2,4-Dinitrophenyl 2-(adamantan-1-yl)acetate]
- isoTOP-ABPP ratio (R) at liganded lysine Q9H3P7_K117 [1]: 1.0

Structure (SMILES): O=C(Oc1ccc([N+](=O)[O-])cc1[N+](=O)[O-])c1ccccc1Nc1cccc(C(F)(F)F)c1 [fragment 40, 2,4-Dinitrophenyl 2-((3-(trifluoromethyl)phenyl)amino)benzoate]
- isoTOP-ABPP ratio (R) at liganded lysine Q9H3P7_K117 [1]: 0.9
- isoTOP-ABPP ratio (R) at liganded lysine O60664_K257 (PLIN3 Perilipin-3; 50 uM, in vitro, sol, 231): 1.6

Structure (SMILES): CC(=O)Oc1ccc([N+](=O)[O-])cc1[N+](=O)[O-] [fragment 43, 2,4-Dinitrophenyl acetate]
- isoTOP-ABPP ratio (R) at liganded lysine Q9H3P7_K117 [1]: 1.2
- isoTOP-ABPP ratio (R) at liganded lysine P61011_K81 [2]: 20.0

Structure (SMILES): O=C(Oc1c(F)c(F)c(C(F)(F)F)c(F)c1F)c1cc(C(F)(F)F)cc(C(F)(F)F)c1 [fragment 47, 2,3,5,6-Tetrafluoro-4-(trifluoromethyl)phenyl 3,5-bis(trifluoromethyl)benzoate]
- isoTOP-ABPP ratio, lysine Q9H3P7_K117 ([1]; 50 uM_231_sol_in vitro): 1.0
- isoTOP-ABPP ratio, lysine P61011_K81 ([2]; 50 uM_231_sol_in vitro): 0.9

Structure (SMILES): CC(C)(C)OC(=O)N=C(NC(=O)OC(C)(C)C)n1cccn1 [fragment 50, reference compound]
- isoTOP-ABPP ratio, lysine Q9H3P7_K117 ([1]; 100 uM_231_sol_in vitro): 14.9
- isoTOP-ABPP ratio, lysine O60664_K140 (PLIN3 Perilipin-3; 100 uM_231_sol_in vitro): 1.8
